Measured values reported in patent publication US9095623B2, “Terminally-functionalized conjugates and uses thereof” (SmartCells, Inc., priority 2009, dated 2015).

Experiment: Blood glucose depression profile after subcutaneous injection in fasted normal non-diabetic rats
Format: in vivo, Male Sprague-Dawley rats
Protocol: Subcutaneous injections of the insulin-dextran were administered using 0.25 ml of a sterilized 1×PBS solution ([…] of equivalent insulin/ml) behind the neck of fasted normal non-diabetic rats (Male Sprague-Dawley, 200-250 g, n=4). Blood samples were collected via tail vein bleeding at −15 and 0 minutes, and at 15, 30, 45, 60, 90, 120, 180, 240, 300 and 360 minutes after injection.
This example evaluates the in vivo pharmacodynamic profile of subcutaneously administered insulin-glycogen. The insulin-glycogen conjugate was synthesized according to Example 8. The bioactivity of the insulin-glycogen conjugate was evaluated by injecting a 2.5 equivalent U of insulin/kg dose behind the neck of fasted normal non-diabetic rats (Male Sprague-Dawley, 200-250 g, n=4). Blood samples were collected via tail vein bleeding at −15 and 0 minutes, and at 15, 30, 45, 60, 90, 120, 180, 240, 300 and 360 minutes after injection. […] This rapid action and elimination profile is due to the rapid enzymatic digestion of the high MW glycogen polymer chain following subcutaneous injection.

[1] = 0.25 ml of 20 U of equivalent insulin/ml, FIG. 5

Substance | glucose lowering as compared to the insulin-dextran conjugates (2.5 equivalent U of insulin/kg, FIG. 6) | time serum glucose levels remain depressed post injection [1] | time to reach the glucose nadir (Tnadir) [1]
insulin-glycogen: comparative conjugate of insulin and oyster glycogen (Type II) made by CNBr coupling, Example 8 | lower glucose levels much more rapidly and to a greater extent | – | –
insulin-dextran: comparative conjugate of recombinant human insulin and dextran (MW 70K) made by CNBr coupling | – | at least five | about 3 hours
